Assay results: the supplement of paper PMC10307832

Columns and labels:
Experiment in all cases: relative viability (nuclei count vs DMSO), 5 days (fraction); higher = more cells survive
XMD13-2 + Navitoclax = compound: C1CC1C(=O)NC2=NNC3=C2C=CC(=C3)C4=CC(=CC=C4)C(=O)NC5CC5 [XMD13-2] + CC1(C)CCC(c2ccc(Cl)cc2)=C(CN2CCN(c3ccc(C(=O)NS(=O)(=O)c4ccc(N[C@H](CCN5CCOCC5)CSc5ccccc5)c(S(=O)(=O)C(F)(F)F)c4)cc3)CC2)C1 [Navitoclax] (partner 0.5 µM)
Summary of the method: (§1)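 Lung cancer cell lines were seeded in 1536-well plates and dosed by pin tool the next day, with either a single drug or a fixed anchor-drug dose combined with five library-drug doses (not always all listed) spaced in √10 steps. Five days later, one step fixed the cells and stained their nuclei (final 0.05% Triton X-100, 1% formaldehyde, 1 ug/ml Hoechst), and nuclei were counted on 4× images. Relative viability is the nuclei count in treated wells divided by the count in vehicle wells, and each value is the median of duplicate plates.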

XMD13-2 + Phenformin = compound: C1CC1C(=O)NC2=NNC3=C2C=CC(=C3)C4=CC(=CC=C4)C(=O)NC5CC5 [XMD13-2] + N=C(N)NC(=N)NCCc1ccccc1 [Phenformin] (partner 250 µM)
Summary of the method: as §1

ALW-II-49-7 + Phenformin = compound: Cc1ccc(C(=O)Nc2cccc(C(F)(F)F)c2)cc1Nc1cncc(C(N)=O)c1 [ALW-II-49-7] + N=C(N)NC(=N)NCCc1ccccc1 [Phenformin] (partner 250 µM)
Summary of the method: as §1

Dasatinib + Pemetrexed = compound: Cc1nc(Nc2ncc(C(=O)Nc3c(C)cccc3Cl)s2)cc(N2CCN(CCO)CC2)n1 [Dasatinib] + Nc1nc2[nH]cc(CCc3ccc(C(=O)N[C@@H](CCC(=O)O)C(=O)O)cc3)c2c(=O)[nH]1 [Pemetrexed] (partner 0.2 µM)
Summary of the method: as §1

Row | Cell Line | relative viability (XMD13-2 + Navitoclax; first compound 0.05 µM) | relative viability (XMD13-2 + Navitoclax; first compound 0.1581 µM) | relative viability (XMD13-2 + Navitoclax; first compound 0.5 µM) | relative viability (XMD13-2 + Navitoclax; first compound 1.581 µM) | relative viability (XMD13-2 + Navitoclax; first compound 5 µM) | relative viability (XMD13-2 + Phenformin; first compound 0.05 µM) | relative viability (XMD13-2 + Phenformin; first compound 0.1581 µM) | relative viability (XMD13-2 + Phenformin; first compound 0.5 µM) | relative viability (XMD13-2 + Phenformin; first compound 1.581 µM) | relative viability (XMD13-2 + Phenformin; first compound 5 µM) | relative viability (ALW-II-49-7 + Phenformin; first compound 0.08 µM) | relative viability (ALW-II-49-7 + Phenformin; first compound 0.253 µM) | relative viability (ALW-II-49-7 + Phenformin; first compound 0.8 µM) | relative viability (ALW-II-49-7 + Phenformin; first compound 2.53 µM) | relative viability (ALW-II-49-7 + Phenformin; first compound 8 µM) | relative viability (Dasatinib + Pemetrexed; first compound 0.005 µM) | relative viability (Dasatinib + Pemetrexed; first compound 0.01581 µM) | relative viability (Dasatinib + Pemetrexed; first compound 0.05 µM) | relative viability (Dasatinib + Pemetrexed; first compound 0.1581 µM) | relative viability (Dasatinib + Pemetrexed; first compound 0.5 µM)
1 | 201T | 1.22 | 1.25 | 1.2 | 1.19 | 1.29 | 0.462 | 0.45 | 0.397 | 0.467 | 0.464 | 0.43 | 0.456 | 0.456 | 0.477 | 0.414 | 0.404 | 0.332 | 0.31 | 0.292 | 0.268
2 | A549 | 1.53 | 1.23 | 1.13 | 1.16 | 1.17 | 0.547 | 0.152 | 0.153 | 0.12 | 0.232 | 0.19 | 0.125 | 0.117 | 0.0978 | 0.201 | – | – | – | – | –
3 | A-427 | 1.01 | 0.961 | 1.09 | 0.87 | 0.989 | 0.37 | 0.252 | 0.334 | 0.263 | 0.282 | 0.216 | 0.305 | 0.316 | 0.357 | 0.27 | 0.972 | 0.832 | 0.807 | 0.556 | 0.619
4 | ABC-1 | – | – | – | – | – | 0.219 | 0.24 | 0.242 | 0.267 | 0.26 | 0.3 | 0.244 | 0.249 | 0.26 | 0.262 | – | – | – | – | –
5 | BEN | 0.186 | 0.0776 | 0.0786 | 0.0451 | 0.0694 | 0.28 | 0.263 | 0.254 | 0.26 | 0.311 | 0.33 | 0.264 | 0.25 | 0.233 | 0.287 | 0.596 | 0.572 | 0.511 | 0.478 | 0.448
6 | CAL-12T | 1.41 | 1.06 | 1 | 1.18 | 1.24 | 0.575 | 0.538 | 0.61 | 0.538 | 0.665 | 0.543 | 0.498 | 0.603 | 0.627 | 0.538 | 1.23 | 1.2 | 1.27 | 0.929 | 0.479
7 | COR-L23 | 1.03 | 1.07 | 1.18 | 1.11 | 0.899 | 0.479 | 0.437 | 0.472 | 0.409 | 0.398 | 0.461 | 0.448 | 0.426 | 0.462 | 0.363 | 0.211 | 0.196 | 0.19 | 0.19 | 0.18
8 | COR-L 105 | 0.818 | 0.761 | 1.25 | 0.684 | 0.872 | 0.589 | 0.532 | 0.455 | 0.506 | 0.452 | 0.423 | 0.48 | 0.471 | 0.466 | 0.47 | 0.869 | 1.1 | 0.783 | 0.605 | 0.361
9 | Calu-6 | 0.915 | 0.829 | 0.808 | 0.776 | 0.548 | – | – | – | – | – | – | – | – | – | – | – | – | – | – | –
10 | ChaGo-K-1 | 1.06 | 0.882 | 0.799 | – | 0.942 | 0.549 | 0.416 | 0.507 | 0.489 | 0.474 | 0.48 | 0.584 | 0.465 | 0.46 | 0.401 | 0.256 | 0.255 | 0.254 | 0.244 | 0.235
11 | EBC-1 | 0.563 | 0.375 | 0.404 | 0.232 | 0.176 | – | – | – | – | – | – | – | – | – | – | – | – | – | – | –
12 | EKVX | 1.17 | 0.869 | 0.859 | 0.973 | 0.997 | 0.224 | 0.222 | 0.229 | 0.212 | 0.238 | 0.233 | 0.229 | 0.215 | 0.261 | 0.224 | 0.384 | 0.376 | 0.335 | 0.371 | 0.152
13 | EMC-BAC-2 | 1.29 | 1.22 | 1.21 | 1.18 | 1.27 | 0.534 | 0.52 | 0.586 | 0.511 | 0.561 | 0.426 | 0.513 | 0.505 | 0.454 | 0.338 | 0.455 | 0.42 | 0.405 | 0.345 | 0.273
14 | EPLC-272H | 1.23 | 1.13 | 1.26 | 0.814 | 0.649 | 0.322 | 0.262 | 0.344 | 0.368 | 0.266 | 0.29 | – | 0.23 | 0.342 | 0.303 | 0.385 | 0.356 | 0.286 | 0.154 | 0.198
15 | H3255 | 0.709 | 0.564 | 0.518 | 0.444 | 0.526 | 0.21 | 0.378 | 0.409 | 0.364 | 0.358 | 0.442 | 0.394 | 0.373 | 0.331 | 0.329 | 0.578 | 0.535 | 0.52 | 0.49 | 0.375
16 | HARA | 1.1 | 1.08 | 1.16 | 1.13 | 1.14 | 0.477 | 0.438 | 0.474 | 0.44 | 0.485 | 0.452 | 0.476 | 0.345 | 0.461 | 0.482 | 0.241 | 0.234 | 0.229 | 0.202 | 0.151
17 | HCC-15 | 0.792 | 0.661 | 0.704 | 0.725 | 0.535 | 0.609 | 0.523 | 0.546 | 0.456 | 0.407 | 0.488 | 0.433 | 0.456 | 0.544 | 0.399 | 0.198 | 0.207 | 0.209 | 0.203 | 0.205
18 | HCC-44 | 1.01 | 1.03 | 1.12 | 0.949 | 1 | 0.217 | 0.161 | 0.213 | 0.269 | 0.183 | 0.261 | 0.203 | 0.231 | 0.277 | 0.211 | 0.627 | 0.579 | 0.692 | 0.709 | 0.633
